From ChEMBL document CHEMBL1131671, “6-(1-Hydroxyalkyl)penam sulfone derivatives as inhibitors of class A and class C beta-lactamases I” (Bioorg Med Chem Lett, 1999)
≈ marks a conversion by molar mass, not a printed value.

How the values were obtained:
[1] = target: Beta-lactamase TEM (Escherichia coli, UniProt P62593); test: Inhibitory activity against TEM-1 (class A) beta-lactamase
[2] = target: Beta-lactamase (Escherichia coli K-12, UniProt P00811); test: Inhibitory activity against AmpC (class C) beta-lactamase
Chain of Beta-lactamase (P00811 whole entry): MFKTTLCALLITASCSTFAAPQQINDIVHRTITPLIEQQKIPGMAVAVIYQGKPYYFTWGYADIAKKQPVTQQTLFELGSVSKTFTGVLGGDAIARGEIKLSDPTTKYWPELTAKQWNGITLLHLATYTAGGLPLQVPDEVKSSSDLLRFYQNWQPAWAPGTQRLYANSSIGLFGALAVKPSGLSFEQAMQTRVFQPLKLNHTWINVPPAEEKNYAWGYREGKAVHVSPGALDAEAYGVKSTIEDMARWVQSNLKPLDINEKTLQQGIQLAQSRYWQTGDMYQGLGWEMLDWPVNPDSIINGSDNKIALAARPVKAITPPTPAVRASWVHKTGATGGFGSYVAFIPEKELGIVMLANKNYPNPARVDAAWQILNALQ

[3] = test system: Mus musculus; test: In vivo inhibitory activity against Serratia marcescens in mice; type: functional
[4] = test system: Serratia marcescens; test: In vitro inhibitory activity against Serratia marcescens; type: functional
[5] = test system: Escherichia coli; test: In vitro inhibitory activity against Escherichia coli; type: functional
[6] = test system: Mus musculus; test: In vivo inhibitory activity against Escherichia coli in mice; type: functional

Chain of Beta-lactamase TEM (P62593 whole entry): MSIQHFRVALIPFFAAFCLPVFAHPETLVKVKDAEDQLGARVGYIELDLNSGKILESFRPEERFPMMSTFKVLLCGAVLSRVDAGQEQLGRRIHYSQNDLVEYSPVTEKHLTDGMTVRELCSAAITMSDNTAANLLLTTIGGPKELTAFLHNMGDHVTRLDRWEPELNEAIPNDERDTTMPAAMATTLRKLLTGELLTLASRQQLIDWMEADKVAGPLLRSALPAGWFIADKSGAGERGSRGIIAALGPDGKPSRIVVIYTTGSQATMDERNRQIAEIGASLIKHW

SMILES	IC50 [1]	IC50 [2]	ED50 [3]	MIC [4]	MIC [5]	ED50 [6]
C[C@@H](O)[C@H]1C(=O)N2C(C(=O)O)=C(S[C@@H]3CCO[C@@H]3CN)[C@H](C)[C@H]12	0.035 µM	180 nM				
C[C@H](O)[C@@H]1C(=O)N2[C@@H](C(=O)O)C(C)(C)S(=O)(=O)[C@H]12	204 µM	120 nM				
CC1(C)S[C@@H]2[C@@H](CO)C(=O)N2[C@H]1C(=O)O	59 µM	220000 nM				
C[C@H](O)[C@H]1C(=O)N2[C@@H](C(=O)O)C(C)(C)S(=O)(=O)[C@H]12	> 334 µM	1600 nM				
C[C@@H](O)[C@H]1C(=O)N2[C@@H](C(=O)O)C(C)(C)S(=O)(=O)[C@H]12	47.9 µM	10200 nM				
CC1(C)[C@H](C(=O)O)N2C(=O)[C@H](CO)[C@H]2S1(=O)=O		5800 nM				
CC1(C)S[C@@H]2[C@H](CO)C(=O)N2[C@H]1C(=O)O	31 µM	65900 nM				
CC(C)[C@H](NC[C@H]1OCC[C@H]1SC1=C(C(=O)O)N2C(=O)[C@H]([C@@H](C)O)C2[C@H]1C)C(=O)O (stereo partly drawn)	0.091 µM	68 nM				
CC1(C)[C@H](C(=O)O)N2C(=O)[C@@H](CO)[C@H]2S1(=O)=O		1160 nM	30 mg/kg	8 µg/mL (≈ 30.4 µM)	4 µg/mL (≈ 15.2 µM)	8 mg/kg
CCN1CCN(C(=O)N[C@@H](C(=O)N[C@@H]2C(=O)N3[C@@H]2SC(C)(C)[C@@H]3C(=O)O)c2ccccc2)C(=O)C1=O [PIPERACILLIN]			128 mg/kg	32 µg/mL (≈ 61.8 µM)	> 64 µg/mL	256 mg/kg
C[C@]1(Cn2ccnn2)[C@H](C(=O)[O-])N2C(=O)C[C@H]2S1(=O)=O.[Na+] [TAZOBACTAM SODIUM]			144 mg/kg	32 µg/mL	2 µg/mL	7.7 mg/kg
